Assay results: ChEMBL document CHEMBL5303304, “EUbOPEN Chemogenomics Library - IncuCyte” (2023)

Legend:
Type in all cases: toxicity, cell-based
Fibroblast = experiment: Incucyte cell viability with human fibroblast; conditions: 10 µM, compound concentration 10 uM
HEK-293T = experiment: Incucyte cell viability with HEK293T; conditions: human, 10 µM, compound concentration 10 uM
U2OS = experiment: Incucyte cell viability with U2OS; conditions: human, 10 µM, compound concentration 10 uM
Note: unitless GR value; below 1 slowed growth and below 0 cell loss.

## CC(C)(C)c1cnc(CSc2cnc(NC(=O)C3CCNCC3)s2)o1 [BMS-387032]
Fibroblast; 0 h, replicate number 1
  Growth Rate: -1
Fibroblast; 0 h, replicate number 2
  Growth Rate: -0.8
Fibroblast; 6 h, replicate number 1
  Growth Rate: 0.49
Fibroblast; 6 h, replicate number 2
  Growth Rate: -0.1
Fibroblast; 12 h, replicate number 1
  Growth Rate: 0.11
Fibroblast; 12 h, replicate number 2
  Growth Rate: -0.28
Fibroblast; 18 h, replicate number 1
  Growth Rate: 0.32
Fibroblast; 18 h, replicate number 2
  Growth Rate: -0.23
Fibroblast; 24 h, replicate number 1
  Growth Rate: 0.23
Fibroblast; 24 h, replicate number 2
  Growth Rate: -0.26
HEK-293T; 6 h, replicate number 1
  Growth Rate: -0.41
HEK-293T; 6 h, replicate number 2
  Growth Rate: -0.76
HEK-293T; 12 h, replicate number 1
  Growth Rate: -0.29
HEK-293T; 12 h, replicate number 2
  Growth Rate: -0.64
HEK-293T; 18 h, replicate number 1
  Growth Rate: -0.21
HEK-293T; 18 h, replicate number 2
  Growth Rate: -0.48
HEK-293T; 24 h, replicate number 1
  Growth Rate: -0.2
HEK-293T; 24 h, replicate number 2
  Growth Rate: -0.37
U2OS; 0 h, replicate number 1
  Growth Rate: -1
U2OS; 0 h, replicate number 2
  Growth Rate: 0.54
U2OS; 6 h, replicate number 1
  Growth Rate: 0.69
U2OS; 6 h, replicate number 2
  Growth Rate: 0.29
U2OS; 12 h, replicate number 1
  Growth Rate: 0.45
U2OS; 12 h, replicate number 2
  Growth Rate: 0.05
U2OS; 18 h, replicate number 1
  Growth Rate: 0.27
U2OS; 18 h, replicate number 2
  Growth Rate: 0.04
U2OS; 24 h, replicate number 1
  Growth Rate: 0.05
U2OS; 24 h, replicate number 2
  Growth Rate: -0.1

## CC(C)(O)c1cn(-c2ccc(-c3cccc(S(C)(=O)=O)c3)cc2)c(C(C)(C)c2ccccc2Cl)n1 [BMS-779788]
Fibroblast; 6 h, replicate number 1
  Growth Rate: -0.03
Fibroblast; 6 h, replicate number 2
  Growth Rate: 0.64
Fibroblast; 12 h, replicate number 1
  Growth Rate: 0.66
Fibroblast; 12 h, replicate number 2
  Growth Rate: 0.55
Fibroblast; 18 h, replicate number 1
  Growth Rate: 0.36
Fibroblast; 18 h, replicate number 2
  Growth Rate: 0.78
Fibroblast; 24 h, replicate number 1
  Growth Rate: 0.75
Fibroblast; 24 h, replicate number 2
  Growth Rate: 0.63
HEK-293T; 0 h, replicate number 1
  Growth Rate: -0.7
HEK-293T; 6 h, replicate number 2
  Growth Rate: 0.58
HEK-293T; 12 h, replicate number 1
  Growth Rate: 0.97
HEK-293T; 12 h, replicate number 2
  Growth Rate: 0.93
HEK-293T; 18 h, replicate number 1
  Growth Rate: 0.81
HEK-293T; 18 h, replicate number 2
  Growth Rate: 0.87
HEK-293T; 24 h, replicate number 1
  Growth Rate: 0.9
HEK-293T; 24 h, replicate number 2
  Growth Rate: 0.92
U2OS; 0 h, replicate number 2
  Growth Rate: 0.31
U2OS; 6 h, replicate number 2
  Growth Rate: 0.61
U2OS; 12 h, replicate number 2
  Growth Rate: 0.79
U2OS; 18 h, replicate number 2
  Growth Rate: 0.76
U2OS; 24 h, replicate number 2
  Growth Rate: 0.7

## NS(=O)(=O)c1cncc(-c2nc(NCc3ccccn3)c3c(-c4ccccc4)cccc3n2)c1 [BMS-919373]
Fibroblast; 0 h, replicate number 2
  Growth Rate: -0.92
Fibroblast; 12 h, replicate number 1
  Growth Rate: -1
Fibroblast; 18 h, replicate number 1
  Growth Rate: 0.34
HEK-293T; 6 h, replicate number 1
  Growth Rate: 0.01
HEK-293T; 6 h, replicate number 2
  Growth Rate: 0.33
HEK-293T; 12 h, replicate number 1
  Growth Rate: 0.64
HEK-293T; 12 h, replicate number 2
  Growth Rate: 0.24
HEK-293T; 18 h, replicate number 1
  Growth Rate: 0.69
HEK-293T; 18 h, replicate number 2
  Growth Rate: 0.22
HEK-293T; 24 h, replicate number 1
  Growth Rate: 1
HEK-293T; 24 h, replicate number 2
  Growth Rate: 0.26
U2OS; 0 h, replicate number 1
  Growth Rate: 0.72
U2OS; 0 h, replicate number 2
  Growth Rate: -0.7
U2OS; 12 h, replicate number 1
  Growth Rate: 0.98
U2OS; 12 h, replicate number 2
  Growth Rate: 0.71
U2OS; 18 h, replicate number 2
  Growth Rate: 0.59
U2OS; 24 h, replicate number 2
  Growth Rate: 0.63

## Cc1c(-c2c(F)cc(C(N)=O)c3[nH]c4c(c23)CC[C@H](C(C)(C)O)C4)cccc1-n1c(=O)c2cccc(F)c2n(C)c1=O [BMS-986142]
Fibroblast; 0 h, replicate number 1
  Growth Rate: -1
Fibroblast; 6 h, replicate number 1
  Growth Rate: -0.27
Fibroblast; 6 h, replicate number 2
  Growth Rate: -0.9
Fibroblast; 12 h, replicate number 1
  Growth Rate: 0.08
Fibroblast; 12 h, replicate number 2
  Growth Rate: 0.19
Fibroblast; 18 h, replicate number 1
  Growth Rate: 0.54
Fibroblast; 18 h, replicate number 2
  Growth Rate: 0.73
Fibroblast; 24 h, replicate number 1
  Growth Rate: 0.8
Fibroblast; 24 h, replicate number 2
  Growth Rate: 1
HEK-293T; 6 h, replicate number 1
  Growth Rate: -0.93
HEK-293T; 6 h, replicate number 2
  Growth Rate: -0.99
HEK-293T; 12 h, replicate number 1
  Growth Rate: -0.7
HEK-293T; 12 h, replicate number 2
  Growth Rate: -0.83
HEK-293T; 18 h, replicate number 1
  Growth Rate: -0.43
HEK-293T; 18 h, replicate number 2
  Growth Rate: -0.59
HEK-293T; 24 h, replicate number 1
  Growth Rate: -0.25
HEK-293T; 24 h, replicate number 2
  Growth Rate: -0.39
U2OS; 0 h, replicate number 1
  Growth Rate: 0.59
U2OS; 0 h, replicate number 2
  Growth Rate: 0.95
U2OS; 6 h, replicate number 1
  Growth Rate: 0.26
U2OS; 6 h, replicate number 2
  Growth Rate: 0.48
U2OS; 12 h, replicate number 1
  Growth Rate: 0.52
U2OS; 12 h, replicate number 2
  Growth Rate: 0.67
U2OS; 18 h, replicate number 1
  Growth Rate: 0.59
U2OS; 18 h, replicate number 2
  Growth Rate: 0.66
U2OS; 24 h, replicate number 1
  Growth Rate: 0.49
U2OS; 24 h, replicate number 2
  Growth Rate: 0.73

## O=C(N[C@@H]1C2CCN(CC2)[C@H]1Cc1cccnc1)c1cc2ccccc2o1 [BRADANICLINE]
Fibroblast; 0 h, replicate number 2
  Growth Rate: -0.99
Fibroblast; 12 h, replicate number 1
  Growth Rate: -0.73
Fibroblast; 18 h, replicate number 1
  Growth Rate: 0.35
Fibroblast; 24 h, replicate number 1
  Growth Rate: 0.82
HEK-293T; 0 h, replicate number 1
  Growth Rate: 0.69
HEK-293T; 0 h, replicate number 2
  Growth Rate: 0.79
HEK-293T; 18 h, replicate number 2
  Growth Rate: 0.96
HEK-293T; 24 h, replicate number 1
  Growth Rate: 0.96
U2OS; 6 h, replicate number 2
  Growth Rate: 0.66
U2OS; 12 h, replicate number 2
  Growth Rate: 0.78
U2OS; 18 h, replicate number 2
  Growth Rate: 0.99
U2OS; 24 h, replicate number 1
  Growth Rate: 0.93
U2OS; 24 h, replicate number 2
  Growth Rate: 0.96

## Nc1c(CC(=O)O)cccc1C(=O)c1ccc(Br)cc1 [BROMFENAC]
Fibroblast; 0 h, replicate number 2
  Growth Rate: -0.66
HEK-293T; 0 h, replicate number 1
  Growth Rate: 0.43
HEK-293T; 0 h, replicate number 2
  Growth Rate: -0.53
HEK-293T; 24 h, replicate number 1
  Growth Rate: 0.98
U2OS; 0 h, replicate number 1
  Growth Rate: 0.27
U2OS; 6 h, replicate number 1
  Growth Rate: 0.2
U2OS; 12 h, replicate number 1
  Growth Rate: 0.79
U2OS; 12 h, replicate number 2
  Growth Rate: 0.95
U2OS; 18 h, replicate number 1
  Growth Rate: 0.86
U2OS; 18 h, replicate number 2
  Growth Rate: 0.92
U2OS; 24 h, replicate number 1
  Growth Rate: 0.74
U2OS; 24 h, replicate number 2
  Growth Rate: 0.95
